Experiments:
Test in all cases: Test E pre-/postemergence greenhouse test, plant response rating 0-100
Format in all cases: in vivo
[1] = system: waterhemp (common waterhemp, Amaranthus rudis); settings: Postemergence, scale 0 to 100
In short: (§1)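 Preemergence application to planted silt loam and postemergence application to 2–18 cm seedlings are run simultaneously. Evaluation is visual against controls after 14 to 21 days, scored from 0 (no effect) to 100 (complete control).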

[2] = system: field bindweed (Convolvulus arvensis); settings: Postemergence, scale 0 to 100
In short: as §1

[3] = system: Brazilian crabgrass (Digitaria horizontalis); settings: Postemergence, scale 0 to 100
In short: as §1

[4] = system: sandbur (southern sandbur, Cenchrus echinatus); settings: Postemergence, scale 0 to 100
In short: as §1

[5] = system: hairy beggarticks (Bidens pilosa); settings: Postemergence, scale 0 to 100
In short: as §1

[6] = system: palmer pigweed (Amaranthus palmeri); settings: Postemergence, scale 0 to 100
In short: as §1

[7] = system: barnyardgrass (Echinochloa crus-galli); settings: Postemergence, scale 0 to 100
In short: as §1

[8] = system: dayflower (Virginia (VA) dayflower, Commelina virginica); settings: Postemergence, scale 0 to 100
In short: as §1

[9] = system: soybean (Glycine max); settings: Postemergence, scale 0 to 100
In short: as §1

[10] = system: fall panicum (Panicum dichotomiflorum); settings: Postemergence, scale 0 to 100
In short: as §1

[11] = system: corn (Zea mays); settings: Postemergence, scale 0 to 100
In short: as §1

[12] = system: arrowleaf sida (Sida rhombifolia); settings: Postemergence
In short: as §1

Fc1cccc(NN=C(c2ccccc2)c2c[nH]nc2-c2cc(Cl)cc(Cl)c2)c1 [Compound 58]
Plant response rating, Waterhemp ([1]; 31 g ai/ha): 80
Plant response rating, Waterhemp ([1]; 62 g ai/ha): 90
Plant response rating, Waterhemp ([1]; 125 g ai/ha): 95
Plant response rating, Waterhemp ([1]; 250 g ai/ha): 100
Plant response rating, Waterhemp ([1]; 500 g ai/ha): 100
Plant response rating, Field Bindweed ([2]; 31 g ai/ha): 0
Plant response rating, Field Bindweed ([2]; 62 g ai/ha): 0
Plant response rating, Field Bindweed ([2]; 125 g ai/ha): 0
Plant response rating, Field Bindweed ([2]; 250 g ai/ha): 0
Plant response rating, Field Bindweed ([2]; 500 g ai/ha): 10
Plant response rating, Crabgrass, Brazil ([3]; 31 g ai/ha): 0
Plant response rating, Crabgrass, Brazil ([3]; 62 g ai/ha): 0
Plant response rating, Crabgrass, Brazil ([3]; 125 g ai/ha): 0
Plant response rating, Crabgrass, Brazil ([3]; 250 g ai/ha): 0
Plant response rating, Crabgrass, Brazil ([3]; 500 g ai/ha): 10
Plant response rating, Sandbur ([4]; 31 g ai/ha): 0
Plant response rating, Sandbur ([4]; 62 g ai/ha): 0
Plant response rating, Sandbur ([4]; 125 g ai/ha): 0
Plant response rating, Sandbur ([4]; 250 g ai/ha): 0
Plant response rating, Sandbur ([4]; 500 g ai/ha): 0
Plant response rating, Beggarticks ([5]; 31 g ai/ha): 70
Plant response rating, Beggarticks ([5]; 62 g ai/ha): 80
Plant response rating, Beggarticks ([5]; 125 g ai/ha): 80
Plant response rating, Beggarticks ([5]; 250 g ai/ha): 95
Plant response rating, Beggarticks ([5]; 500 g ai/ha): 100
Plant response rating, Pigweed, Palmer ([6]; 31 g ai/ha): 80
Plant response rating, Pigweed, Palmer ([6]; 62 g ai/ha): 80
Plant response rating, Pigweed, Palmer ([6]; 125 g ai/ha): 95
Plant response rating, Pigweed, Palmer ([6]; 250 g ai/ha): 95
Plant response rating, Pigweed, Palmer ([6]; 500 g ai/ha): 100
Plant response rating, Barnyardgrass ([7]; 31 g ai/ha): 0
Plant response rating, Barnyardgrass ([7]; 62 g ai/ha): 0
Plant response rating, Barnyardgrass ([7]; 125 g ai/ha): 0
Plant response rating, Barnyardgrass ([7]; 250 g ai/ha): 0
Plant response rating, Barnyardgrass ([7]; 500 g ai/ha): 0
Plant response rating, Dayflower, VA ([8]; 31 g ai/ha): 0
Plant response rating, Dayflower, VA ([8]; 62 g ai/ha): 0
Plant response rating, Dayflower, VA ([8]; 125 g ai/ha): 0
Plant response rating, Dayflower, VA ([8]; 250 g ai/ha): 0
Plant response rating, Dayflower, VA ([8]; 500 g ai/ha): 0
Plant response rating, Soybean ([9]; 31 g ai/ha): 0
Plant response rating, Soybean ([9]; 62 g ai/ha): 0
Plant response rating, Soybean ([9]; 125 g ai/ha): 0
Plant response rating, Soybean ([9]; 250 g ai/ha): 0
Plant response rating, Soybean ([9]; 500 g ai/ha): 0
Plant response rating, Panicum, Fall ([10]; 31 g ai/ha): 0
Plant response rating, Panicum, Fall ([10]; 250 g ai/ha): 0
Plant response rating, Corn ([11]; 31 g ai/ha): 0
Plant response rating, Corn ([11]; 62 g ai/ha): 0
Plant response rating, Corn ([11]; 125 g ai/ha): 0
Plant response rating, Corn ([11]; 250 g ai/ha): 0
Plant response rating, Corn ([11]; 500 g ai/ha): 0
Plant response rating, Arrowleaf Sida ([12]; 31 g ai/ha, scale 0 to 100): 50
Plant response rating, Arrowleaf Sida ([12]; 62 g ai/ha, scale 0 to 100): 50
Plant response rating, Arrowleaf Sida ([12]; 125 g ai/ha, scale 0 to 100): 60
Plant response rating, Arrowleaf Sida ([12]; 250 g ai/ha, scale 0 to 100): 75
Plant response rating, Arrowleaf Sida ([12]; 500 g ai/ha, scale 0 to 100 (0 no effect, 100 complete control)): 80

Reference: US10167262B2, “Herbicidal substituted 3-arylpyrazoles” (FMC CORPORATION, priority 2014, dated 2019)
